Like-named read-outs stand apart in the source and are kept apart here. Marks after values point to notes of the source that are not given here.
Experiments:
Type in all cases: in vivo
Fusarium graminearum = conditions: wheat head scab
[1] = tested on: Puccinia recondita f. sp. tritici; assay: Test B: wheat leaf rust, preventive spray on wheat seedlings, disease rating
In short: (§1)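 Disease ratings come from wheat seedlings sprayed preventively to run-off, mostly at 200 ppm, which corresponds to an application rate of 500 g/ha; certain entries used 40 ppm or 50 ppm. The carrier was 50/50 acetone/water with 250 ppm surfactant.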

[2] = tested on: Erysiphe graminis f. sp. tritici; assay: Test A: wheat powdery mildew, preventive spray on wheat seedlings, disease rating
In short: as §1

Rhizoctonia oryzae = assay: Test I: turf brown patch, preventive spray on creeping bent grass seedlings, disease rating; conditions: 200 ppm
Source text: The test compounds were first dissolved in acetone in an amount equal to 3% of the final volume and then suspended at the desired concentration (in ppm) in acetone and purified water (50/50 mix) containing 250 ppm of the surfactant Trem® 014 (polyhydric alcohol esters). The resulting test suspensions were then used in Tests A-L. Spraying a 200 ppm test suspension to the point of run-off on the test plants was the equivalent of an application rate of 500 g/ha. The test suspension was sprayed to the point of run-off on creeping bent grass seedlings. […] A dash (-) indicates no test results. All results are for 200 ppm except where followed by an “*”, which indicates 40 ppm or “**”, which indicates 50 ppm.

Plasmopara viticola = assay: Test K: grape downy mildew, spray on grape seedlings after inoculation, disease rating
Source text: The test compounds were first dissolved in acetone in an amount equal to 3% of the final volume and then suspended at the desired concentration (in ppm) in acetone and purified water (50/50 mix) containing 250 ppm of the surfactant Trem® 014 (polyhydric alcohol esters). The resulting test suspensions were then used in Tests A-L. Spraying a 200 ppm test suspension to the point of run-off on the test plants was the equivalent of an application rate of 500 g/ha. Grape seedlings were inoculated with a spore suspension of Plasmopara viticola (the causal agent of grape downy mildew) and incubated in a saturated atmosphere at 20° C. for 24 h. After a short drying period, the test suspension was sprayed to the point of run-off on the grape seedlings and then moved to a growth chamber at 20° C. for 6 days, after which the test units were placed back into a saturated atmosphere at 20° C. for 24 h. Upon removal, disease ratings were made. […] A dash (-) indicates no test results. All results are for 200 ppm except where followed by an “*”, which indicates 40 ppm or “**”, which indicates 50 ppm.

Pythium aphanidermatum = assay: Test L: bluegrass pythium blight, preventive spray on bluegrass seedlings, disease rating
Source text: The test compounds were first dissolved in acetone in an amount equal to 3% of the final volume and then suspended at the desired concentration (in ppm) in acetone and purified water (50/50 mix) containing 250 ppm of the surfactant Trem® 014 (polyhydric alcohol esters). The resulting test suspensions were then used in Tests A-L. Spraying a 200 ppm test suspension to the point of run-off on the test plants was the equivalent of an application rate of 500 g/ha. The test suspension was sprayed to the point of run-off on bluegrass seedlings. […] A dash (-) indicates no test results. All results are for 200 ppm except where followed by an “*”, which indicates 40 ppm or “**”, which indicates 50 ppm.

Alternaria solani = assay: Test H: tomato early blight, preventive spray on tomato seedlings, disease rating
In short: (§2)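 Tomato seedlings sprayed to run-off, as a preventive treatment, with compound suspended in acetone/water (50/50) containing 250 ppm Trem 014 surfactant; 200 ppm equals 500 g/ha. Disease then rated. Values are at 200 ppm unless marked * (40 ppm) or ** (50 ppm).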

Septoria nodorum = assay: Test C: wheat glume blotch, preventive spray on wheat seedlings, disease rating
In short: as §1

Phytophthora infestans = conditions: 200 ppm; tomato late blight
Botrytis cinerea = assay: Test F: tomato Botrytis, preventive spray on tomato seedlings, disease rating; conditions: 200 ppm
In short: as §2

Septoria tritici = assay: Test D: wheat leaf blotch, preventive spray on wheat seedlings, disease rating
In short: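 Wheat seedlings sprayed to run-off with compound in acetone/water containing 250 ppm Trem 014 (200 ppm ≈ 500 g/ha; some results at 40 or 50 ppm), inoculated next day with Septoria tritici spores. Held 48 h saturated at 24 °C, then 19 days at 20 °C before disease rating.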

COC(=O)NCc1cc(C(C)=NOCC[Si](C)(C)C)ccc1Cl [Compound 1, methyl N-[[2-chloro-5-[1-[[2-(trimethylsilyl)ethoxy]imino]ethyl]phenyl]-methyl]carbamate]
Percentage Disease Control, Test E (Fusarium graminearum; 200 ppm): 100%
Percentage Disease Control, Test B ([1]; 200 ppm): 100%
Percentage Disease Control, Test A ([2]; 200 ppm): 100%
Percentage Disease Control, Test I (Rhizoctonia oryzae): 0%
Percentage Disease Control, Test K (Plasmopara viticola; 200 ppm): 66%
Percentage Disease Control, Test L (Pythium aphanidermatum; 200 ppm): 0%
Percentage Disease Control, Test H (Alternaria solani; 200 ppm): 0%
Percentage Disease Control, Test C (Septoria nodorum; 200 ppm): 100%
Percentage Disease Control, Test J (Phytophthora infestans): 0%
Percentage Disease Control, Test F (Botrytis cinerea): 0%
Percentage Disease Control, Test D (Septoria tritici; 40 ppm (*)): 100* %

COC(=O)NCc1cc(-c2ccn(Cc3cnc(Cl)s3)n2)ccc1Cl [Cmpd 25]
Percentage Disease Control, Test E (Fusarium graminearum; 200 ppm): 77%
Percentage Disease Control, Test B ([1]; 200 ppm): 96%
Percentage Disease Control, Test A ([2]; 200 ppm): 91%
Percentage Disease Control, Test I (Rhizoctonia oryzae): 0%
Percentage Disease Control, Test K (Plasmopara viticola; 200 ppm): 63%
Percentage Disease Control, Test L (Pythium aphanidermatum; 200 ppm): 0%
Percentage Disease Control, Test H (Alternaria solani; 200 ppm): 76%
Percentage Disease Control, Test C (Septoria nodorum; 200 ppm): 78%
Percentage Disease Control, Test J (Phytophthora infestans): 0%
Percentage Disease Control, Test F (Botrytis cinerea): 37%
Percentage Disease Control, Test D (Septoria tritici; 200 ppm): 96%

CC[Si](C)(C)Cn1ccc(-c2ccc(Cl)c(CNC(=O)OC)c2)n1 [Cmpd 27]
Percentage Disease Control, Test E (Fusarium graminearum; 200 ppm): 93%
Percentage Disease Control, Test B ([1]; 40 ppm (*)): 99* %
Percentage Disease Control, Test A ([2]; 200 ppm): 96%
Percentage Disease Control, Test I (Rhizoctonia oryzae): 0%
Percentage Disease Control, Test K (Plasmopara viticola; 200 ppm): 76%
Percentage Disease Control, Test L (Pythium aphanidermatum; 200 ppm): 0%
Percentage Disease Control, Test H (Alternaria solani; 200 ppm): 0%
Percentage Disease Control, Test C (Septoria nodorum; 40 ppm (*)): 94* %
Percentage Disease Control, Test J (Phytophthora infestans): 0%
Percentage Disease Control, Test F (Botrytis cinerea): 0%
Percentage Disease Control, Test D (Septoria tritici; 40 ppm (*)): 96* %

COC(=O)NCc1cc(-c2ccn(CCC(C)C)n2)ccc1Cl [Cmpd 22]
Percentage Disease Control, Test E (Fusarium graminearum; 200 ppm): 99%
Percentage Disease Control, Test B ([1]; 40 ppm (*)): 95* %
Percentage Disease Control, Test A ([2]; 40 ppm (*)): 99* %
Percentage Disease Control, Test I (Rhizoctonia oryzae): 0%
Percentage Disease Control, Test K (Plasmopara viticola; 200 ppm): 99%
Percentage Disease Control, Test L (Pythium aphanidermatum; 40 ppm (*)): 94* %
Percentage Disease Control, Test H (Alternaria solani; 200 ppm): 0%
Percentage Disease Control, Test C (Septoria nodorum; 200 ppm): 99%
Percentage Disease Control, Test J (Phytophthora infestans): 50%
Percentage Disease Control, Test F (Botrytis cinerea): 0%
Percentage Disease Control, Test D (Septoria tritici; 40 ppm (*)): 85* %

COC(=O)NCc1cc(-c2ccn(C)n2)ccc1Cl [Cmpd 28]
Percentage Disease Control, Test E (Fusarium graminearum; 200 ppm): 0%
Percentage Disease Control, Test B ([1]; 200 ppm): 88%
Percentage Disease Control, Test A ([2]; 200 ppm): 54%
Percentage Disease Control, Test I (Rhizoctonia oryzae): 0%
Percentage Disease Control, Test K (Plasmopara viticola; 200 ppm): 25%
Percentage Disease Control, Test L (Pythium aphanidermatum; 200 ppm): 0%
Percentage Disease Control, Test H (Alternaria solani; 200 ppm): 28%
Percentage Disease Control, Test C (Septoria nodorum; 200 ppm): 0%
Percentage Disease Control, Test J (Phytophthora infestans): 0%
Percentage Disease Control, Test F (Botrytis cinerea): 0%
Percentage Disease Control, Test D (Septoria tritici; 200 ppm): 86%

COC(=O)NOc1cc(-c2cccc(OC(F)(F)F)c2)ccc1Cl [Cmpd 18]
Percentage Disease Control, Test E (Fusarium graminearum; 200 ppm): 100%
Percentage Disease Control, Test B ([1]; 40 ppm (*)): 99* %
Percentage Disease Control, Test A ([2]; 40 ppm (*)): 100* %
Percentage Disease Control, Test I (Rhizoctonia oryzae): 0%
Percentage Disease Control, Test K (Plasmopara viticola; 200 ppm): 81%
Percentage Disease Control, Test L (Pythium aphanidermatum; 200 ppm): 98%
Percentage Disease Control, Test H (Alternaria solani; 200 ppm): 70%
Percentage Disease Control, Test C (Septoria nodorum; 40 ppm (*)): 99* %
Percentage Disease Control, Test J (Phytophthora infestans): 89%
Percentage Disease Control, Test F (Botrytis cinerea): 0%
Percentage Disease Control, Test D (Septoria tritici; 40 ppm (*)): 98* %

COC(=O)NCc1cc(-c2ccn(CCC[Si](C)(C)C)n2)ccc1Cl [Cmpd 23]
Percentage Disease Control, Test E (Fusarium graminearum; 200 ppm): 99%
Percentage Disease Control, Test B ([1]; 40 ppm (*)): 100* %
Percentage Disease Control, Test A ([2]; 40 ppm (*)): 99* %
Percentage Disease Control, Test I (Rhizoctonia oryzae): 0%
Percentage Disease Control, Test K (Plasmopara viticola; 40 ppm (*)): 99* %
Percentage Disease Control, Test L (Pythium aphanidermatum; 40 ppm (*)): 93* %
Percentage Disease Control, Test H (Alternaria solani; 200 ppm): 0%
Percentage Disease Control, Test C (Septoria nodorum; 40 ppm (*)): 100* %
Percentage Disease Control, Test J (Phytophthora infestans): 91%
Percentage Disease Control, Test F (Botrytis cinerea): 0%
Percentage Disease Control, Test D (Septoria tritici; 40 ppm (*)): 98* %

COC(=O)NCc1cc(C(C)=NOC[Si](C)(C)c2ccc(Cl)cc2)ccc1Cl [Compound 5]
Percentage Disease Control, Test E (Fusarium graminearum; 200 ppm): 0%
Percentage Disease Control, Test B ([1]; 200 ppm): 100%
Percentage Disease Control, Test A ([2]; 200 ppm): 99%
Percentage Disease Control, Test I (Rhizoctonia oryzae): 0%
Percentage Disease Control, Test K (Plasmopara viticola; 200 ppm): 23%
Percentage Disease Control, Test L (Pythium aphanidermatum; 200 ppm): 0%
Percentage Disease Control, Test H (Alternaria solani; 200 ppm): 77%
Percentage Disease Control, Test C (Septoria nodorum; 200 ppm): 99%
Percentage Disease Control, Test J (Phytophthora infestans): 0%
Percentage Disease Control, Test F (Botrytis cinerea): 0%
Percentage Disease Control, Test D (Septoria tritici; 40 ppm (*)): 100* %

COC(=O)NCc1cc(-c2ccn(-c3ccccc3)n2)ccc1Cl [Cmpd 34]
Percentage Disease Control, Test E (Fusarium graminearum; 40 ppm (*)): 98* %
Percentage Disease Control, Test B ([1]; 40 ppm (*)): 100* %
Percentage Disease Control, Test A ([2]; 40 ppm (*)): 97* %
Percentage Disease Control, Test I (Rhizoctonia oryzae): 0%
Percentage Disease Control, Test K (Plasmopara viticola; 200 ppm): 78%
Percentage Disease Control, Test L (Pythium aphanidermatum; 200 ppm): 0%
Percentage Disease Control, Test H (Alternaria solani; 40 ppm (*)): 90* %
Percentage Disease Control, Test C (Septoria nodorum; 40 ppm (*)): 97* %
Percentage Disease Control, Test J (Phytophthora infestans): 0%
Percentage Disease Control, Test F (Botrytis cinerea): 0%
Percentage Disease Control, Test D (Septoria tritici; 40 ppm (*)): 100* %

COC(=O)NCc1cc(-c2ccn(CC#N)n2)ccc1Cl [Cmpd 26]
Percentage Disease Control, Test E (Fusarium graminearum; 200 ppm): 0%
Percentage Disease Control, Test B ([1]; 200 ppm): 73%
Percentage Disease Control, Test A ([2]; 200 ppm): 0%
Percentage Disease Control, Test I (Rhizoctonia oryzae): 0%
Percentage Disease Control, Test K (Plasmopara viticola; 200 ppm): 6%
Percentage Disease Control, Test L (Pythium aphanidermatum; 200 ppm): 0%
Percentage Disease Control, Test H (Alternaria solani; 200 ppm): 0%
Percentage Disease Control, Test C (Septoria nodorum; 200 ppm): 0%
Percentage Disease Control, Test J (Phytophthora infestans): 60%
Percentage Disease Control, Test F (Botrytis cinerea): 0%
Percentage Disease Control, Test D (Septoria tritici; 200 ppm): 26%
